pIC50: −log10 of the molar value. Where “and” joins values, the source holds several entries; their conditions need not be identical. Identical values can stand only once.
Columns and labels:
[1] = Antiviral activity against HCoV-OC43 infected in human HCT-8 cells assessed as inhibition of viral growth at 10 uM incubated for 4 days by ELISA analysis relative to control; type: functional, Human coronavirus OC43; set-up: scale not given: the % may be the effect or the level left; conditions: time 4 day
HCT-8 = assay: Cytotoxicity against human HCT-8 cells assessed as redcution in cell viability at 10 uM incubated for 96 hrs by PrestoBlue reagent based assay relative to control; type: toxicity; conditions: hct-8, 96 h
[2] = Cytotoxicity against human HCT-8 cells assessed as redcution in cell viability incubated for 96 hrs by PrestoBlue reagent based assay; type: toxicity
[3] = Cytotoxicity against African green monkey Vero cells assessed as reduction in cell viability incubated for 48 hrs by PrestoBlue reagent based assay; type: toxicity; conditions: chlorocebus sabaeus
[4] = Cytotoxicity against human Calu-3 cells assessed as reduction in cell viability incubated for 48 hrs by PrestoBlue reagent based assay; type: toxicity
[5] = Cytotoxicity against human MRC5 cells assessed as reduction in cell viability incubated for 48 hrs by PrestoBlue reagent based assay; type: toxicity
[6] = Cytotoxicity against human HepG2 cells assessed as reduction in cell viability incubated for 48 hrs by PrestoBlue reagent based assay; type: toxicity
[7] = Antiviral activity against HCoV-OC43 infected in human HCT-8 cells assessed as inhibition of viral growth incubated for 4 days by ELISA analysis; type: functional, cell-based, Human coronavirus OC43; conditions: Betacoronavirus 1, HCT-8, 96 h
[8] = Selectivity index, ratio of CC50 for cytotoxicity against human HCT-8 cells to IC50 for antiviral activity against HCoV-OC43 infected in human HCT-8 cells; type: toxicity, cell-based; conditions: read-out: Ratio CC50/IC50
SARS-CoV-2 [9] = assay: Antiviral activity against SARS-CoV-2 infected in African green monkey Vero cells assessed as inhibition of viral growth incubated for 2 days by ELISA analysis; type: functional, organism-based; conditions: Severe acute respiratory syndrome coronavirus 2, Vero, 48 h
[10] = Selectivity index, ratio of CC50 for cytotoxicity against African green monkey Vero cells to IC50 for antiviral activity against SARS-CoV-2 infected in African green monkey Vero cells; type: toxicity, cell-based; conditions: read-out: Ratio CC50/IC50
SARS-CoV-2 [11] = assay: microbe, parasite or virus in culture; type: functional, organism-based, Vero E6; conditions: Severe acute respiratory syndrome coronavirus 2, Vero C1008

Compound `O=c1ccc2nccc3c4ccc(O[C@@H]5O[C@H](CO)[C@@H](O)[C@H](O)[C@H]5O)cc4n1c23` has an Activity [1] of less than 20%, an Activity (HCT-8) of 53.28% and a CC50 at 96 h [2] of 33.8 µM. For the same compound, the CC50 at 48 h [3] was greater than 100 µM, the CC50 at 48 h [4] was greater than 100 µM and the CC50 at 48 h [5] was greater than 100 µM. For the same compound, the CC50 at 48 h [6] was greater than 100 µM.
Compound `CC1=CC(=O)[C@@H](O)[C@]2(C)[C@H]3[C@]4(O)OC[C@@]35[C@@H](C[C@@H]12)OC(=O)[C@H](O)[C@@]5(O)[C@]1(CO1)[C@H]4O` has an Activity [1] of 61.73%, an Activity (HCT-8) of 100.88% and a pIC50 [7] of 5.23. For the same compound, the CC50 at 96 h [2] was greater than 100 µM, the selectivity ratio [8] was greater than 17 and the IC50 (SARS-CoV-2 [9]) was 9.39 µM and 3.98 µg/mL. For the same compound, the CC50 at 48 h [3] was greater than 100 µM, the selectivity ratio [10] was greater than 10.7 and the CC50 at 48 h [4] was greater than 100 µM. For the same compound, the CC50 at 48 h [5] was greater than 100 µM and the CC50 at 48 h [6] was greater than 100 µM.
Compound `O=c1ccc2nccc3c4ccc(O)cc4n1c23` has an Activity [1] of less than 20%, an Activity (HCT-8) of 49.3% and a CC50 at 96 h [2] of 60.9 µM. It also gave a CC50 at 48 h [3] greater than 100 µM, a CC50 at 48 h [4] greater than 100 µM and a CC50 at 48 h [5] greater than 100 µM. The CC50 at 48 h [6] was greater than 100 µM.
In the case of `COC(=O)[C@@]12OC[C@]34[C@H]([C@@H](O)[C@@H]1O)[C@@]1(C)CC(=O)C(O)=C(C)[C@@H]1C[C@H]3OC(=O)[C@H](OC(=O)C=C(C)C)[C@@H]24`, the pIC50 (SARS-CoV-2 [11]) was 7.31.
In the case of `COc1ccc2c3ccnc4ccc(=O)n(c2c1)c43`, the Activity [1] was less than 20%, the Activity (HCT-8) was 33.49% and the CC50 at 96 h [2] was 21.1 µM. For the same compound, the CC50 at 48 h [3] was greater than 100 µM, the CC50 at 48 h [4] was greater than 100 µM and the CC50 at 48 h [5] was greater than 100 µM. For the same compound, the CC50 at 48 h [6] was greater than 100 µM.
`COc1ccc2c(c1)[nH]c1c(CCC(=O)O)nccc12` gave an Activity [1] of less than 20%, an Activity (HCT-8) of 108.23% and a CC50 at 96 h [2] of 79 µM. For the same compound, the CC50 at 48 h [3] was greater than 100 µM, the CC50 at 48 h [4] was greater than 100 µM and the CC50 at 48 h [5] was greater than 100 µM. The CC50 at 48 h [6] was greater than 100 µM.
`O=C(O)CCc1nccc2c1[nH]c1ccccc12` showed an Activity [1] of less than 20%, an Activity (HCT-8) of 108.05% and a CC50 at 96 h [2] greater than 100 µM. It also gave a CC50 at 48 h [3] greater than 100 µM, a CC50 at 48 h [4] greater than 100 µM and a CC50 at 48 h [5] greater than 100 µM. The CC50 at 48 h [6] was greater than 100 µM.
Work on `O=C(O)CCc1nccc2c1[nH]c1cc(O)ccc12` yielded an Activity [1] of less than 20%, an Activity (HCT-8) of 108.23% and a CC50 at 96 h [2] of 50.1 µM. It also gave a CC50 at 48 h [3] greater than 100 µM, a CC50 at 48 h [4] greater than 100 µM and a CC50 at 48 h [5] greater than 100 µM. It also gave a CC50 at 48 h [6] greater than 100 µM.
With `CC1=CC(=O)[C@@H](O)[C@]2(C)[C@H]3[C@]4(O)OC[C@@]35[C@@H](C[C@@H]12)OC(=O)C[C@H]5[C@](C)(O)[C@H]4O` the Activity [1] was 84.54%, the Activity (HCT-8) was 56.66% and the pIC50 [7] was 6.49. For the same compound, the CC50 at 96 h [2] was 6.65 µM, the selectivity ratio [8] was 20.8 and the IC50 (SARS-CoV-2 [9]) was 430 nM and 0.16 µg/mL. For the same compound, the CC50 at 48 h [3] was 26.2 µM, the selectivity ratio [10] was 61 and the CC50 at 48 h [4] was 98.7 µM. It also gave a CC50 at 48 h [5] of 9.99 µM and a CC50 at 48 h [6] of 86.7 µM.
With `CC1=CC(=O)[C@@H](O)[C@]2(C)[C@H]3[C@]4(O)OC[C@@]35[C@@H](C[C@@H]12)OC(=O)[C@H](O)[C@@]5(O)[C@](C)(O)[C@H]4O` the Activity [1] was 93.71%, the Activity (HCT-8) was 70.13% and the pIC50 [7] was 6.60. The CC50 at 96 h [2] was 48.7 µM, the selectivity ratio [8] was 195 and the IC50 (SARS-CoV-2 [9]) was 4.84 µM and 1.69 µg/mL. It also gave a CC50 at 48 h [3] greater than 100 µM, a selectivity ratio [10] greater than 20.7 and a CC50 at 48 h [4] greater than 100 µM. The CC50 at 48 h [5] was 54.3 µM and the CC50 at 48 h [6] was greater than 100 µM.
`CC1=CC(=O)[C@@H](O)[C@]2(C)C3[C@@H](O)[C@@H]4OC(=O)[C@@H]([C@H]4C)[C@]3(C)C(=O)C[C@@H]12` (some centres undefined) showed an Activity [1] of 90.27%, an Activity (HCT-8) of 71.14% and a pIC50 [7] of 6.43. The CC50 at 96 h [2] was 58.9 µM, the selectivity ratio [8] was 159 and the IC50 (SARS-CoV-2 [9]) was 510 nM and 0.18 µg/mL. For the same compound, the CC50 at 48 h [3] was 57.1 µM, the selectivity ratio [10] was 112 and the CC50 at 48 h [4] was 41.9 µM. For the same compound, the CC50 at 48 h [5] was 31.2 µM and the CC50 at 48 h [6] was greater than 100 µM.
`C=C1CC[C@@H]2[C@](C)(CO)[C@H](O)CC[C@@]2(C)[C@@H]1C/C=C1/C(=O)OC[C@H]1O` [ANDROGRAPHOLIDE] gave an Activity [1] of 60.4% and an Activity (HCT-8) of 93.47%.
`COC(=O)[C@@]12OC[C@]34[C@H]([C@@H](O)[C@@H]1O)[C@@]1(C)CC(=O)C(O)=C(C)[C@@H]1C[C@H]3OC(=O)[C@H](OC(=O)CC(C)C)[C@@H]24` [BRUCEINE A] showed a pIC50 (SARS-CoV-2 [11]) of 7.96.
Work on `O=c1ccc2nccc3c4ccccc4n1c23` [CANTHIN-6-ONE] yielded an Activity [1] of less than 20%, an Activity (HCT-8) of 55.55% and a CC50 at 96 h [2] of 42.4 µM. For the same compound, the CC50 at 48 h [3] was greater than 100 µM, the CC50 at 48 h [4] was greater than 100 µM and the CC50 at 48 h [5] was 91.2 µM. It also gave a CC50 at 48 h [6] of 85.7 µM.
`C=C1[C@@H](O)[C@@]2(O)OC[C@]34[C@H]2[C@@]2(C)[C@H](O)C(=O)C=C(C)[C@@H]2C[C@H]3OC(=O)[C@H](O)[C@@]14O` [EURYCOMANONE] gave an Activity [1] of 57.93%, an Activity (HCT-8) of 72.16% and a pIC50 [7] of 5.35. The CC50 at 96 h [2] was 59.2 µM, the selectivity ratio [8] was 13.2 and the IC50 (SARS-CoV-2 [9]) was 15 µM and 6.11 µg/mL. The CC50 at 48 h [3] was greater than 100 µM, the selectivity ratio [10] was greater than 6.68 and the CC50 at 48 h [4] was 88.1 µM. It also gave a CC50 at 48 h [5] greater than 100 µM and a CC50 at 48 h [6] greater than 100 µM.
Compound `CCC(CC)COC(=O)[C@H](C)N[P@](=O)(OC[C@H]1O[C@@](C#N)(c2ccc3c(N)ncnn23)[C@H](O)[C@@H]1O)Oc1ccccc1` [REMDESIVIR] has an Activity [1] of 92.45%, an Activity (HCT-8) of 96.21% and a pIC50 [7] of 6.49. It also gave a CC50 at 96 h [2] of 53.2 µM, a selectivity ratio [8] of 166 and a pIC50 (SARS-CoV-2 [9]) of 4.65. It also gave a CC50 at 48 h [3] greater than 100 µM, a selectivity ratio [10] greater than 4.44 and a CC50 at 48 h [4] greater than 100 µM. It also gave a CC50 at 48 h [5] greater than 100 µM and a CC50 at 48 h [6] of 52.6 µM.
